Assay results as given in patent publication EP1948196B1, “USE OF TETRAORGANOSILICON COMPOUNDS” (Salama, Zoser B., priority 2005, dated 2007).
In brackets after ≈: the same amount, converted by molar mass. Numbered stars: 1 amine (or outer) side, 2 acyl side, 3 side chain; on linkers, the order of the positions; unused ones are H or OH. Bridge positions count the residues as written; N and C are the ends. Peptide text beside a SMILES is read from it. I, II: the chains in the order shown. X2 = c1ccc([Si](O[*:1])(O[*:2])c2ccccc2)cc1; X1 = C[Si](C)(O[*:1])O[*:2]

How the values were obtained:
T47D (Brustkrebs) = experiment: MTT test, triplicate, two-fold dilutions; format: cell-based; settings: Homo sapiens, T47D, read-out: IC50 T47D
Experimental: (§1) Die Silan wurden in Ethanol aufgelöst und in Zellkulturmedien in Konzentrationen von bis zu 500 µg/ml resuspendiert. Es wurden MTT Tests in dreifacher Ausführung durchgeführt, für welche doppelte Lösungen (7 Schritte) und colo205 (Kofon-Karzinom), BxPC3 (pankreatisches Adenokarzinom) sowie T47D (Brustkrebs) benutzt wurden.

colo205 (Kofon-Karzinom) = experiment: MTT test, triplicate, two-fold dilutions; format: cell-based; settings: Homo sapiens, COLO 205, read-out: IC50 Colo205
Experimental: as §1

[1] = system: BxPC3 (pankreatisches Adenokarzinom); experiment: MTT test, triplicate, two-fold dilutions; format: cell-based; settings: Homo sapiens, BXPC-3, read-out: IC50 BxPC3
Experimental: as §1

[2] = system: Panc1 Pankreaskrebszellen; experiment: subG1 apoptotic fraction, propidium iodide, flow cytometry; format: cell-based; settings: 50 µg/ml, 4 Tage
Experimental: (§2) Die Zellen (IEC6 mausartige Enterozyten; Panc1 Pankreaskrebszellen; Colo205 Kolonkarzinom) wurden mit 50 µg/ml Silanen inkubiert und nach 4-tägiger Aussetzung auf DNA eingefärbt (Propidiumiodid). Die SubG1 Zellteilung wurde mittels Durchflusscytometrie bestimmt.

[3] = system: IEC6 mausartige Enterozyten; experiment: as above; format: cell-based; settings: 50 µg/ml, 4 Tage
Experimental: as §2

Colo205 Kolonkarzinom = experiment: as above; format: cell-based; settings: 50 µg/ml, 4 Tage
Experimental: as §2

Normale Zellen = experiment: Mean IC50 over all normal cell lines; format: cell-based; settings: read-out: IC50 Normale Zellen (Durchschnitt ± SD)
Experimental: (§3) Die Silane 1, 5, 9, 10, 11, 13, 15, 16 wurden in Ethanol gelöst und in MTT Assays in einer anfänglichen Konzentration von 200 µg/ml (5 Lösungsschritte 200 - 12.5 µg/ml) verwendet. Die Platten wurde für eine Dauer.von 4 Tagen inkubiert und die Entwicklungsfähigkeit mithilfe des EZ4U Test bestimmt. Die IC50 Werte wurden ausgehend von Dosierungs-Reaktions-Linien berechnet Zelllinien: Colo 205 and HT29 - Kolonkarzinom; BxPC3 and MIAPaCa2 - Pankreaskrebs; CRO2B - karzinoid, A431 Epidermalkarzinom; normale Zellen: WI38 - humane embryonale Fibroblasten; NIH3T3 - mausartige Fibroblasten; IEC6 - mausartige Enterozyten.
(§4) Mittelwerte-IC50 für alle Krebs- oder normalen Zelllinien: […]

Krebszellen = experiment: Mean IC50 over all cancer cell lines; format: cell-based; settings: read-out: IC50 Krebszellen (Durchschnitt ± SD)
Experimental: as §3, §4

CRO2B - karzinoid = experiment: MTT assay / EZ4U test, 4 days; format: cell-based; settings: read-out: IC50 CR02B
Experimental: as §3

HT29 - Kolonkarzinom = experiment: MTT assay / EZ4U test, 4 days; format: cell-based; settings: Homo sapiens, HT-29, read-out: IC50 HT29
Experimental: as §3

[4] = system: NIH3T3 - mausartige Fibroblasten; experiment: MTT assay / EZ4U test, 4 days; format: cell-based; settings: Mus musculus, NIH3T3, read-out: IC50 NIH3T3
Experimental: as §3

MIAPaCa2 - Pankreaskrebs = experiment: MTT assay / EZ4U test, 4 days; format: cell-based; settings: Homo sapiens, MIA PaCa-2, read-out: IC50 MlAPaCa2
Experimental: as §3

BxPC3 - Pankreaskrebs = experiment: MTT assay / EZ4U test, 4 days; format: cell-based; settings: Homo sapiens, BXPC-3, read-out: IC50 BxPC3
Experimental: as §3

A431 Epidermalkarzinom = experiment: MTT assay / EZ4U test, 4 days; format: cell-based; settings: Homo sapiens, A-431, read-out: IC50 A431
Experimental: as §3

[5] = system: WI38 - humane embryonale Fibroblasten; experiment: MTT assay / EZ4U test, 4 days; format: cell-based; settings: Homo sapiens, WI-38, read-out: IC50 WI38
Experimental: as §3

[6] = system: IEC6 - mausartige Enterozyten; experiment: MTT assay / EZ4U test, 4 days; format: cell-based; settings: Rattus norvegicus, IEC-6, read-out: IC50 IEC6
Experimental: as §3

Lymphome = experiment: Effect on lymphomas

For N[C@@H](Cc1ccccc1)C(=O)N[C@@H](Cc1ccccc1)C(=O)N[C@@H](Cc1ccccc1)C(=O)O[Si](OC(=O)[C@H](Cc1ccccc1)NC(=O)[C@H](Cc1ccccc1)NC(=O)[C@@H](N)Cc1ccccc1)(c1ccccc1)c1ccccc1 [Diphenyl bis(triphenylalanyl)silylester], the “Wirkung auf Plasmozytome” value (Plasmozytome) was “zeigen eine Wirkung”.
For N[C@@H](Cc1ccccc1)C(=O)N[C@@H](Cc1ccccc1)C(=O)N[C@@H](Cc1ccccc1)C(=O)N[C@@H](Cc1ccccc1)C(=O)N[C@@H](Cc1ccccc1)C(=O)N[C@@H](Cc1ccccc1)C(=O)O[Si](OC(=O)[C@H](Cc1ccccc1)NC(=O)[C@H](Cc1ccccc1)NC(=O)[C@H](Cc1ccccc1)NC(=O)[C@H](Cc1ccccc1)NC(=O)[C@H](Cc1ccccc1)NC(=O)[C@@H](N)Cc1ccccc1)(c1ccccc1)c1ccccc1 [Diphenyl bis(hexaphenylalanyl)silylester] (I: H-FFFFFF / II: H-FFFFFF; linker I:C-II:C via X2), the “Wirkung auf Plasmozytome” value (Plasmozytome) was “zeigen eine Wirkung”.
For N[C@@H](Cc1ccccc1)C(=O)N[C@@H](Cc1ccccc1)C(=O)N[C@@H](Cc1ccccc1)C(=O)N[C@@H](Cc1ccccc1)C(=O)N[C@@H](Cc1ccccc1)C(=O)N[C@@H](Cc1ccccc1)C(=O)N[C@@H](Cc1ccccc1)C(=O)O[Si](OC(=O)[C@H](Cc1ccccc1)NC(=O)[C@H](Cc1ccccc1)NC(=O)[C@H](Cc1ccccc1)NC(=O)[C@H](Cc1ccccc1)NC(=O)[C@H](Cc1ccccc1)NC(=O)[C@H](Cc1ccccc1)NC(=O)[C@@H](N)Cc1ccccc1)(c1ccccc1)c1ccccc1 [Diphenyl bis(heptaphenylalanyl)silylester] (I: H-FFFFFFF / II: H-FFFFFFF; linker I:C-II:C via X2), the “Wirkung auf Plasmozytome” value (Plasmozytome) was “zeigen eine Wirkung”.
In the case of NCC(=O)NCC(=O)NCC(=O)NCC(=O)O[Si](OC(=O)CNC(=O)CNC(=O)CNC(=O)CN)(c1ccccc1)c1ccccc1 [Diphenyl bis(tetraglycyl)silylester], the “Wirkung auf Plasmozytome” value (Plasmozytome) is reported as “zeigen eine Wirkung”.
For N[C@@H](Cc1ccccc1)C(=O)N[C@@H](Cc1ccccc1)C(=O)N[C@@H](Cc1ccccc1)C(=O)N[C@@H](Cc1ccccc1)C(=O)O[Si](OC(=O)[C@H](Cc1ccccc1)NC(=O)[C@H](Cc1ccccc1)NC(=O)[C@H](Cc1ccccc1)NC(=O)[C@@H](N)Cc1ccccc1)(c1ccccc1)c1ccccc1 [Diphenyl bis(tetraphenylalanyl)silylester], the “Wirkung auf Plasmozytome” value (Plasmozytome) was “zeigen eine Wirkung”.
For CCCCCCCCCCCCCCCC(=O)O[Si](CC)(CC)OC(=O)CCCCCCCCCCCCCCC [Si11, Di (hexadecanoyloxy) diethylsilan], the IC50 (T47D (Brustkrebs)) was 7 µg/mL (≈ 11.7 µM), the IC50 (colo205 (Kofon-Karzinom)) was 300 µg/mL (≈ 502 µM) and the IC50 [1] was 10 µg/mL (≈ 16.7 µM). The “subG1 apoptotische Zellteilung Panc1” value [2] was 37,7 ± 1,8, the “subG1 apoptotische Zellteilung IEC6” value [3] was 7.0 ± 0,14 and the “subG1 apoptotische Zellteilung Colo205” value (Colo205 Kolonkarzinom) was 3,3 ± 0,14. The IC50 (Normale Zellen) was 23.3 µg/mL (≈ 39 µM), the IC50 (Krebszellen) was 21.1 µg/mL (≈ 35.3 µM) and the IC50 (CRO2B - karzinoid) was 18.9 µg/mL (≈ 31.7 µM). The IC50 (HT29 - Kolonkarzinom) was 23.1 µg/mL (≈ 38.7 µM), the IC50 [4] was 25 µg/mL (≈ 41.9 µM) and the IC50 (MIAPaCa2 - Pankreaskrebs) was 82.5 µg/mL (≈ 138 µM). The IC50 (BxPC3 - Pankreaskrebs) was 20 µg/mL (≈ 33.5 µM), the IC50 (A431 Epidermalkarzinom) was 21.9 µg/mL (≈ 36.7 µM) and the IC50 [5] was 23.7 µg/mL (≈ 39.7 µM). For the same compound, the IC50 [6] was 21.2 µg/mL (≈ 35.5 µM).
With N[C@@H](Cc1ccccc1)C(=O)N[C@@H](Cc1ccccc1)C(=O)N[C@@H](Cc1ccccc1)C(=O)N[C@@H](Cc1ccccc1)C(=O)N[C@@H](Cc1ccccc1)C(=O)N[C@@H](Cc1ccccc1)C(=O)N[C@@H](Cc1ccccc1)C(=O)N[C@@H](Cc1ccccc1)C(=O)O[Si](OC(=O)[C@H](Cc1ccccc1)NC(=O)[C@H](Cc1ccccc1)NC(=O)[C@H](Cc1ccccc1)NC(=O)[C@H](Cc1ccccc1)NC(=O)[C@H](Cc1ccccc1)NC(=O)[C@H](Cc1ccccc1)NC(=O)[C@H](Cc1ccccc1)NC(=O)[C@@H](N)Cc1ccccc1)(c1ccccc1)c1ccccc1 [Diphenyl bis(octaphenylalanyl)silylester] (I: H-FFFFFFFF / II: H-FFFFFFFF; linker I:C-II:C via X2) the “Wirkung auf Plasmozytome” value (Plasmozytome) was “zeigen eine Wirkung”.
With N[C@@H](Cc1ccccc1)C(=O)N[C@@H](Cc1ccccc1)C(=O)N[C@@H](Cc1ccccc1)C(=O)N[C@@H](Cc1ccccc1)C(=O)N[C@@H](Cc1ccccc1)C(=O)N[C@@H](Cc1ccccc1)C(=O)N[C@@H](Cc1ccccc1)C(=O)N[C@@H](Cc1ccccc1)C(=O)N[C@@H](Cc1ccccc1)C(=O)O[Si](OC(=O)[C@H](Cc1ccccc1)NC(=O)[C@H](Cc1ccccc1)NC(=O)[C@H](Cc1ccccc1)NC(=O)[C@H](Cc1ccccc1)NC(=O)[C@H](Cc1ccccc1)NC(=O)[C@H](Cc1ccccc1)NC(=O)[C@H](Cc1ccccc1)NC(=O)[C@H](Cc1ccccc1)NC(=O)[C@@H](N)Cc1ccccc1)(c1ccccc1)c1ccccc1 [Diphenyl bis(nonaphenylalanyl)silylester] (I: H-FFFFFFFFF / II: H-FFFFFFFFF; linker I:C-II:C via X2) the “Wirkung auf Plasmozytome” value (Plasmozytome) was “zeigen eine Wirkung”.
For N[C@@H](Cc1ccccc1)C(=O)N[C@@H](Cc1ccccc1)C(=O)N[C@@H](Cc1ccccc1)C(=O)N[C@@H](Cc1ccccc1)C(=O)N[C@@H](Cc1ccccc1)C(=O)N[C@@H](Cc1ccccc1)C(=O)N[C@@H](Cc1ccccc1)C(=O)N[C@@H](Cc1ccccc1)C(=O)N[C@@H](Cc1ccccc1)C(=O)N[C@@H](Cc1ccccc1)C(=O)O[Si](OC(=O)[C@H](Cc1ccccc1)NC(=O)[C@H](Cc1ccccc1)NC(=O)[C@H](Cc1ccccc1)NC(=O)[C@H](Cc1ccccc1)NC(=O)[C@H](Cc1ccccc1)NC(=O)[C@H](Cc1ccccc1)NC(=O)[C@H](Cc1ccccc1)NC(=O)[C@H](Cc1ccccc1)NC(=O)[C@H](Cc1ccccc1)NC(=O)[C@@H](N)Cc1ccccc1)(c1ccccc1)c1ccccc1 [Diphenyl bis(decaphenylalanyl) silylester] (I: H-FFFFFFFFFF / II: H-FFFFFFFFFF; linker I:C-II:C via X2), the “Wirkung auf Plasmozytome” value (Plasmozytome) was “zeigen eine Wirkung”.
C[Si](C)(OC(=O)[C@H](Cc1ccccc1)NC(=O)[C@H](Cc1ccccc1)NC(=O)[C@H](Cc1ccccc1)NC(=O)[C@H](Cc1ccccc1)NC(=O)[C@H](Cc1ccccc1)NC(=O)[C@H](Cc1ccccc1)NC(=O)[C@H](Cc1ccccc1)NC(=O)[C@@H](N)Cc1ccccc1)OC(=O)[C@H](Cc1ccccc1)NC(=O)[C@H](Cc1ccccc1)NC(=O)[C@H](Cc1ccccc1)NC(=O)[C@H](Cc1ccccc1)NC(=O)[C@H](Cc1ccccc1)NC(=O)[C@H](Cc1ccccc1)NC(=O)[C@H](Cc1ccccc1)NC(=O)[C@@H](N)Cc1ccccc1 [Dimethyl bis(octaphenylalanyl)silylester] (I: H-FFFFFFFF / II: H-FFFFFFFF; linker I:C-II:C via X1) was tested, and the “Wirkung auf Lymphome” value (Lymphome) was “zeigen eine Wirkung”.
